Reference: patent publication US20260102356A1, “METHOD FOR LOADING DIMERIC CD24 INTO HEK293 CELL EXTRACELLULAR VESICLES WITH ADAM10 GENE KNOCKED OUT” (Exocure Sweden AB, priority 2022, published 2026)
Where “and” joins values, the source holds several entries; their conditions need not be identical. Identical values can stand only once.

What was measured:
Assay type in all cases: cell-based, human
[1] = tested on: PBMCs; assay: PBMC inflammation model (anti-CD3/anti-CD28), IFN-γ in supernatant, Example 2; conditions: anti_hCD3 + anti_hCD28 1 μg/mL, treatment 10 μg/mL, 72 h
Method: Detection of the immunosuppressive activity of different EVs and proteins in a PBMC inflammation model: PBMCs were used for the experiment. An inflammation model was established by using 1 μg/ml anti-human CD3 Antibody (coated) and 1 μg/ml anti-human CD28 Antibody (free). The positive drug (dexamethasone), free CD24-Fc protein, and various doses of engineered dimeric CD24-loaded EV and monomer CD24-loaded EV were administered for 72 h, and their inhibitory activity on the inflammatory response of PBMCs was assessed.

[2] = tested on: PBMCs; assay: PBMC inflammation model (anti-CD3/anti-CD28), IFN-γ in supernatant, Example 4; conditions: for IFN-γ_pg/mL-Mean / Detected IFN-γ concentration: PBMC supernatant, anti_hCD3 + anti_hCD28 1 μg/mL, treatment 10 μg/mL, 72 h; for Detected IFN-γ concentration: single replicates
Method: Detection of the immunosuppressive activity of different EVs and proteins in a PBMC inflammation model: PBMCs were used for the experiment. An inflammation model was established by using […] anti-human CD3 Antibody (coated) and 1 μg/ml anti-human CD28 Antibody (free). The positive drug (dexamethasone), free ApoE protein, and various doses of engineered dimeric ApoE-loaded EV were administered for 72 h, and their inhibitory activity on the inflammatory response of PBMCs was assessed.

[3] = tested on: PBMCs; assay: PBMC inflammation model (anti-CD3/anti-CD28), IFN-γ in supernatant, Example 6
Method: • (1) Preparation of dimeric CD24-Exosomes: The plasmid construction, cell line screening and exosome preparation processes were consistent with those in Example 1. • (2) Loading of MyD88 Inhibitor Polypeptide: dimeric CD24 exosomes were mixed well with MyD88 inhibitor polypeptide (1 mg of MyD88 added to 1E+12 exosome particles). The solution was adjusted to a pH of 8.0 (or 9.0, 10.0) with Na2CO3, and then purified using Capto core700 to remove free MyD88 inhibitor polypeptide. The flow-through was collected to obtain CD24 exosomes loaded with MyD88 inhibitor polypeptide. The loading amount of MyD88 inhibitor polypeptide was assessed using ELISA (peptide loading technology referenced in patent: 202111263036.5). • (3) Detection of the immunosuppressive activity of different EVs and proteins in a PBMC inflammation model: PBMCs were used for the experiment. An inflammation model was established by using 1 μg/ml anti-human CD3 Antibody (coated) and 1 μg/ml anti-human CD28 Antibody (free). The positive drug (dexamethasone), free CD24-Fc fusion protein, and various doses of engineered dimeric CD24 loaded-EV and engineered dimeric CD24+MyD88 inhibitor polypeptide loaded-EV were administered for 72 h or 120 h, and their inhibitory activity on the inflammatory response of PBMCs was assessed

[4] = in vitro PBMC inflammation model

Compound | IFN-γ_pg/mL-Mean [1] [pg/mL] | Detected IFN-γ concentration ([1]; single replicates) | IFN-γ_pg/mL-Mean [2] [pg/mL] | Detected IFN-γ concentration [2] | IFN-γ_pg/mL-Mean ([3]; PBMC supernatant, treatment time 72 h, treatment 10 μg/mL) [pg/mL] | Detected IFN-γ concentration ([3]; PBMC supernatant, treatment time 72 h, treatment 10 μg/mL, single replicates) | inflammation inhibitory activity compared to the model group [2, 4] | inflammation inhibitory activity compared to the model group [3, 4]
C[C@@H]1C[C@H]2[C@@H]3CCC4=CC(=O)C=C[C@]4(C)[C@@]3(F)[C@@H](O)C[C@]2(C)[C@@]1(O)C(=O)CO [Dexamethasone, dexamethasone] | 6.0 | 5.62 pg/mL and 5.78 pg/mL and 6.51 pg/mL | 5.8 | 5.5 pg/mL and 5.8 pg/mL and 6.2 pg/mL | 4.5 | 4.32 pg/mL and 4.76 pg/mL and 4.5 pg/mL |  | 
ApoE: free ApoE protein, comparator |  |  | 18092.0 | 18563 pg/mL and 17689 pg/mL and 18024 pg/mL |  |  | better inflammation inhibitory activity | better inflammation inhibitory activity
